In ChEMBL document CHEMBL1201862, “PubChem BioAssay data set” (2004):
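Values below derive from 48-hour exposures of cells grown in 96-well plates, with endpoints linearly interpolated between the two concentrations bracketing the appropriate inhibition level. Abbreviation: GI50, concentration required for 50% inhibition of growth.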 Active and inactive are the calls of the source. Cut-off read from the data, not from the text of the source: active = GI50 up to about 1.1 µM and inactive = higher.

Legend:
Assay in all cases: NCI tumour cell line growth inhibition, 48 h
TK-10 = test system: TK-10
NCI-H23 = test system: NCI-H23
A549 = test system: A549
KM12 = test system: KM12
786-0 = test system: 786-0
ACHN = test system: ACHN
SF-295 = test system: SF-295
EKVX = test system: EKVX
SW-620 = test system: SW-620
HT-29 = test system: HT-29
SK-MEL-5 = test system: SK-MEL-5
UACC-62 = test system: UACC-62
LOX IMVI = test system: LOX IMVI
SK-MEL-28 = test system: SK-MEL-28
RXF 393 = test system: RXF 393
NCI-H460 = test system: NCI-H460
NCI-H522 = test system: NCI-H522
BT-549 = test system: BT-549
PC-3 = test system: PC-3
Hs-578T = test system: Hs-578T

Measured: GI50

O=[N+]([O-])c1cccnc1S(=O)(=O)c1ccccc1
inactive: TK-10 10 µM | NCI-H23 15.8 µM | A549 21.8 µM | KM12 19.6 µM | 786-0 2.48 µM | ACHN 4.83 µM | SF-295 18.5 µM | EKVX 6.4 µM | SW-620 3.27 µM | HT-29 6.41 µM | SK-MEL-5 18.1 µM | UACC-62 11.6 µM | LOX IMVI 4.46 µM | SK-MEL-28 20 µM | RXF 393 1.99 µM | NCI-H460 13.9 µM | NCI-H522 1.46 µM

CC1(C)C[C@H]2[C@H](O)C(CO)=C3C(=O)[C@@H](O)[C@]3(C)[C@H]2C1
inactive: BT-549 45.7 µM | PC-3 > 100 µM | TK-10 > 100 µM | NCI-H23 63.7 µM | A549 > 100 µM | KM12 > 100 µM | 786-0 > 100 µM | ACHN > 100 µM | SF-295 > 100 µM | EKVX > 100 µM | SW-620 > 100 µM | HT-29 85.7 µM | SK-MEL-5 > 100 µM | UACC-62 > 100 µM | LOX IMVI 44.4 µM | SK-MEL-28 > 100 µM | RXF 393 61.7 µM | NCI-H522 64.6 µM

N#CC(C#N)=Cn1c(=S)[nH]c2ccc([N+](=O)[O-])cc21
inactive: PC-3 > 100 µM | TK-10 > 100 µM | NCI-H23 > 100 µM | A549 > 100 µM | KM12 > 100 µM | 786-0 > 100 µM | ACHN > 100 µM | SF-295 > 100 µM | EKVX > 100 µM | SW-620 > 100 µM | HT-29 > 100 µM | SK-MEL-5 > 100 µM | UACC-62 > 100 µM | LOX IMVI > 100 µM | SK-MEL-28 > 100 µM | RXF 393 > 100 µM | NCI-H460 > 100 µM | Hs-578T 60.8 µM | NCI-H522 > 100 µM

O=C(NCC(=O)N1CCOC1=O)OCc1ccccc1
inactive: TK-10 > 100 µM | NCI-H23 > 100 µM | A549 > 100 µM | KM12 > 100 µM | 786-0 > 100 µM | ACHN > 100 µM | SF-295 > 100 µM | EKVX > 100 µM | SW-620 > 100 µM | HT-29 > 100 µM | SK-MEL-5 > 100 µM | UACC-62 > 100 µM | LOX IMVI > 100 µM | SK-MEL-28 > 100 µM | RXF 393 > 100 µM | NCI-H460 > 100 µM | NCI-H522 > 100 µM

COc1ccccc1Nc1nc2c([nH]1)c(=O)n(C)c(=O)n2C
inactive: PC-3 > 10 µM | TK-10 > 10 µM | NCI-H23 > 10 µM | A549 > 10 µM | KM12 > 10 µM | 786-0 > 10 µM | SF-295 > 10 µM | EKVX > 10 µM | SW-620 > 10 µM | HT-29 > 10 µM | SK-MEL-5 > 10 µM | UACC-62 > 10 µM | LOX IMVI > 10 µM | SK-MEL-28 > 10 µM | RXF 393 > 10 µM

N=C(N)NNC(=O)CCn1[nH]c(=O)c(Cl)c(Cl)c1=O
inactive: TK-10 > 100 µM | NCI-H23 > 100 µM | A549 > 100 µM | KM12 > 100 µM | 786-0 > 100 µM | ACHN > 100 µM | SF-295 > 100 µM | EKVX > 100 µM | SW-620 > 100 µM | HT-29 > 100 µM | SK-MEL-5 > 100 µM | UACC-62 > 100 µM | LOX IMVI > 100 µM | SK-MEL-28 > 100 µM | RXF 393 > 100 µM | NCI-H460 > 100 µM | NCI-H522 > 100 µM

O=S(=O)(C1=CC(S(=O)(=O)c2ccccc2)CN(Cc2ccccc2)C1c1cccc2ccccc12)c1ccccc1 (centres undefined)
inactive: TK-10 > 69 µM | NCI-H23 > 69 µM | A549 > 69 µM | KM12 > 69 µM | 786-0 > 69 µM | ACHN > 69 µM | SF-295 > 69 µM | EKVX > 69 µM | SW-620 > 69 µM | HT-29 > 69 µM | SK-MEL-5 > 69 µM | UACC-62 > 69 µM | LOX IMVI > 69 µM | SK-MEL-28 > 69 µM | RXF 393 25.4 µM | NCI-H460 > 69 µM | NCI-H522 > 69 µM

CN(C)CCNc1nc2c(c(=O)n(C)c(=O)n2C)n1C
inactive: BT-549 > 100 µM | TK-10 > 100 µM | NCI-H23 > 100 µM | A549 > 100 µM | KM12 > 100 µM | 786-0 > 100 µM | ACHN > 100 µM | SF-295 > 100 µM | EKVX > 100 µM | SW-620 > 100 µM | HT-29 > 100 µM | SK-MEL-5 > 100 µM | UACC-62 > 100 µM | LOX IMVI > 100 µM | SK-MEL-28 > 100 µM | RXF 393 > 100 µM | NCI-H460 > 100 µM | Hs-578T > 100 µM | NCI-H522 > 100 µM
